Laboratory results as given in article PMC11790763, “A Peptide Motif Covering Splice Site B in Neuroligin-1 Binds to Aβ and Acts as a Neprilysin Inhibitor” (Molecular Neurobiology, 2024).
Bridges are numbered along the chain shown (N, C = ends). Roman numbers before positions name the chains, in order. Where no end group is shown, it is not given here.

T1: brain-derived NEP (Mus musculus, UniProt Q61391)
T1 construct: Clear supernatants were used as membrane-extracted fractions; from tissue; host or cells: adult mouse brain without cerebellum, Triton X-100-extracted membrane fraction
T1 sequence (Q61391 1-750): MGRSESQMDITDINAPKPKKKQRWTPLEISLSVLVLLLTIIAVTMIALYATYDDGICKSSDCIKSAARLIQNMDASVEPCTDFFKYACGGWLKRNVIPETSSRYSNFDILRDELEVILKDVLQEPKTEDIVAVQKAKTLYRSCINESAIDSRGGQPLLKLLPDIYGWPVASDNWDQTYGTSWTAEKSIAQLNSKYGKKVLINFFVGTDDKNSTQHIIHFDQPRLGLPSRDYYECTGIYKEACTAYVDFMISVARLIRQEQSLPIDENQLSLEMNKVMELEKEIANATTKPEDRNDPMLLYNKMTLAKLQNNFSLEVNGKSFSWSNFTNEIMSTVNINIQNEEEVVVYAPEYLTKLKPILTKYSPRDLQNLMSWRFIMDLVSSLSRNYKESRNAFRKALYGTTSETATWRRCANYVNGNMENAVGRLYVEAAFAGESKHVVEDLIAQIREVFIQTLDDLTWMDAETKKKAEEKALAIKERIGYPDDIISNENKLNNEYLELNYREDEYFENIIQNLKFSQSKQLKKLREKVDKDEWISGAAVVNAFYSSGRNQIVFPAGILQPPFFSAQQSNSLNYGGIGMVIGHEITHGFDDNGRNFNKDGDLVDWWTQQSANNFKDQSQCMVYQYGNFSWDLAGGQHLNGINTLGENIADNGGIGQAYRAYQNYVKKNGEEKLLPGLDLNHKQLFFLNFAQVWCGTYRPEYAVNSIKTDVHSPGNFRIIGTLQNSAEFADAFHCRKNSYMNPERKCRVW

B1: NL1: recombinant rat neuroligin-1, soluble ectodomain (R&D systems) (protein, UniProt Q62765 46-697, looked up)
extracellular domain: QKLDDVDPLVTTNFGKIRGIKKELNNEILGPVIQFLGVPYAAPPTGEHRFQPPEPPSPWSDIRNATQFAPVCPQNIIDGRLPEVMLPVWFTNNLDVVSSYVQDQSEDCLYLNIYVPTEDVKRISKECARKPGKKICRKGDIRDSGGPKPVMVYIHGGSYMEGTGNLYDGSVLASYGNVIVITVNYRLGVLGFLSTGDQAAKGNYGLLDLIQALRWTSENIGFFGGDPLRITVFGSGAGGSCVNLLTLSHYSEGNRWSNSTKGLFQRAIAQSGTALSSWAVSFQPAKYARILATKVGCNVSDTVELVECLQKKPYKELVDQDVQPARYHIAFGPVIDGDVIPDDPQILMEQGEFLNYDIMLGVNQGEGLKFVENIVDSDDGVSASDFDFAVSNFVDNLYGYPEGKDVLRETIKFMYTDWADRHNPETRRKTLLALFTDHQWVAPAVATADLHSNFGSPTYFYAFYHHCQTDQVPAWADAAHGDEVPYVLGIPMIGPTELFPCNFSKNDVMLSAVVMTYWTNFAKTGDPNQPVPQDTKFIHTKPNRFEEVAWTRYSQKDQLYLHIGLKPRVKEHYRANKVNLWLELVPHLHNLNDISQYTSTTTKVPSTDITLRPTRKNSTPVTSAFPTAKQDDPKQQPSPFSVDQRDYSTELS
modifications: extracellular domain

Key:
5XFAD mice = assay: GFAP immunoreactivity (astrogliosis) in cortex; format: in vivo, mouse; conditions: 10 mg/kg s.c. three times a week for 10 weeks, neurolide n = 11 versus vehicle n = 13, p < 0.01
Experimental: (§1) At the age of 2 months, 5XFAD and WT mice were injected subcutaneously (s.c.) with either neurolide (10 mg/kg) or saline in a volume of 0.1 ml/10 g of body weight three times a week for 10 weeks.
After 10 weeks of treatment, mice were transcardially perfused with 0.1 M PBS, pH 7.4 under deep pentobarbital anesthesia (intraperitoneal, 200 mg/kg). The left brain hemispheres were postfixed in 4% paraformaldehyde in PBS. The brain hemispheres were further dehydrated in ethanol, cleared, embedded in paraffin blocks and serially sectioned into 7-μm coronal sections through the entire brain hemisphere. Parallel series of sections were collected, consisting of 12 equally spaced Sects. (400 μm apart). One of the series was stained with 1% Thioflavin-S for histological evaluation of Aβ plaque formation. Another series was used for immunohistochemical staining of GFAP + astrocytes as described previously. Extracellular Aβ plaque load was assessed in cortex, hippocampus, striatum, thalamus, and hypothalamus. GFAP-positive astrocytes were assessed in motor cortex. Serial super images of whole-brain sections were acquired using an Olympus BX-51 microscope equipped with the Visiopharm Integrator System software (Visiopharm) and analyzed using the ImageJ software package. […] The area, covered by Thioflavin-S or GFAP staining, was measured in selected regions.

5XFAD and WT mice = assay: Aβ plaque load, Thioflavin-S staining of brain sections; format: in vivo, mouse
Experimental: as §1
After 10 weeks of treatment, mice were transcardially perfused with 0.1 M PBS, pH 7.4 under deep pentobarbital anesthesia (intraperitoneal, 200 mg/kg). The left brain hemispheres were postfixed in 4% paraformaldehyde in PBS. The brain hemispheres were further dehydrated in ethanol, cleared, embedded in paraffin blocks and serially sectioned into 7-μm coronal sections through the entire brain hemisphere. Parallel series of sections were collected, consisting of 12 equally spaced Sects. (400 μm apart). One of the series was stained with 1% Thioflavin-S for histological evaluation of Aβ plaque formation. Another series was used for immunohistochemical staining of GFAP + astrocytes as described previously. Extracellular Aβ plaque load was assessed in cortex, hippocampus, striatum, thalamus, and hypothalamus. GFAP-positive astrocytes were assessed in motor cortex. Serial super images of whole-brain sections were acquired using an Olympus BX-51 microscope equipped with the Visiopharm Integrator System software (Visiopharm) and analyzed using the ImageJ software package. The pictures were converted to 8-bit images, and the area of interest was marked. The intensity threshold was fixed to fit Thioflavin-S or GFAP signal. The area, covered by Thioflavin-S or GFAP staining, was measured in selected regions.

brain-derived NEP [1] = target: T1, brain-derived NEP; assay: Neprilysin activity in NEP-enriched brain membrane fraction of 5XFAD mice; format: biochemical, mouse (5XFAD); conditions: 5XFAD mice membrane fraction; neurolide 10 μM; n = 6
Experimental: To measure NEP activity in brain tissue, whole brains without cerebellum were dissected from adult mice (C57Bl/6j or 5XFAD) and homogenized with a Teflon-glass homogenizer in five volumes (w/v) of ice-cold lysis buffer containing PBS (pH 7.4), 0.25 M sucrose and protease inhibitor cocktail (Complete™, EDTA-free, Roche Diagnostics, Indianapolis, IN). The homogenates were centrifuged at 9000 × g for 15 min at 4 °C. The supernatants were further centrifuged at 20,000 × g at 4 °C for 20 min. The resulting pellets were solubilized in resuspension buffer containing PBS (pH 7.4) and 1% Triton X-100 for 1 h on ice and again centrifuged at 20,000 × g at 4 °C for 20 min. Clear supernatants were used as membrane-extracted fractions. Protein concentrations of Triton-extracted membrane fractions were determined using the Pierce BCA Protein Assay kit (Thermo Fisher Scientific). The standard assay mixture consisted of membrane fraction containing 40 μg total protein diluted in 40 μl of dilution buffer, 10 μl of testing compound (NL1, neurolide or vehicle), and 50 μl of NEP substrate (5-FAM/QXL; Anaspec) in a total volume of 100 μl. The reaction was initiated by adding substrate to the assay mixture. […] Fluorescence was measured at Ex/Em = 485/535 nm every 20 min for 2 h. The data were expressed as percentage of relative activity of neprilysin.

brain-derived NEP [2] = target: T1, brain-derived NEP; assay: Neprilysin activity in NEP-enriched brain membrane fraction of WT mice; format: biochemical, mouse (C57Bl/6j); conditions: 40 μg protein, n = 5
Experimental: To measure NEP activity in brain tissue, whole brains without cerebellum were dissected from adult mice (C57Bl/6j or 5XFAD) and homogenized with a Teflon-glass homogenizer in five volumes (w/v) of ice-cold lysis buffer containing PBS (pH 7.4), 0.25 M sucrose and protease inhibitor cocktail (Complete™, EDTA-free, Roche Diagnostics, Indianapolis, IN). The homogenates were centrifuged at 9000 × g for 15 min at 4 °C. The supernatants were further centrifuged at 20,000 × g at 4 °C for 20 min. The resulting pellets were solubilized in resuspension buffer containing PBS (pH 7.4) and 1% Triton X-100 for 1 h on ice and again centrifuged at 20,000 × g at 4 °C for 20 min. Clear supernatants were used as membrane-extracted fractions. Protein concentrations of Triton-extracted membrane fractions were determined using the Pierce BCA Protein Assay kit (Thermo Fisher Scientific). The standard assay mixture consisted of membrane fraction containing 40 μg total protein diluted in 40 μl of dilution buffer, 10 μl of testing compound (NL1, neurolide or vehicle), and 50 μl of NEP substrate (5-FAM/QXL; Anaspec) in a total volume of 100 μl. The reaction was initiated by adding substrate to the assay mixture. […] Positive and negative controls were set up according to the manufacturer’s protocol (Anaspec). Fluorescence was measured at Ex/Em = 485/535 nm every 20 min for 2 h. The data were expressed as percentage of relative activity of neprilysin.

rats = conditions: cited from earlier work
recombinant rat NL1 = target: T2, recombinant rat NL1 (Rattus norvegicus, UniProt Q62765); assay: Surface plasmon resonance binding to immobilized NL1; conditions: SPR, KD for Aβ1-42 versus KD for NX1β
T2 construct: the extracellular domain of NL1 was immobilized on a sensor chip; purchased R&D systems (Abingdon, UK)
Experimental: Binding analysis was performed on a Biacore 2000 SPR biosensor (GE Healthcare) at 25 °C using HBS-P (10 mM HEPES, pH 7.4, 150 mM NaCl, 0.005% [v/v] Surfactant P20) supplemented with 3 mM CaCl2 as a running buffer. Approximately 2000 Resonance Units (RU) of NL1 was immobilized on a CM4 sensor chip at a flow rate of 5 μl/min by amine coupling. Binding to serially diluted recombinant NX1β, used as a positive control, was performed as previously described. Aβ1-42 was dissolved in anhydrous DMSO to a stock concentration of 3.21 mM followed by serial dilution in running buffer. Peptide was injected into the chip, and binding experiments were performed at a flow rate of 20 μl/min, followed by regeneration of sensor chip with 10 μl of 15 mM NaOH and 150 mM NaCl. After subtraction of blank control, the binding curves were analyzed based on a nonlinear curve fitting using a 1:1 Langmuir binding model and the software package BIAevaluation 4 (GE Healthcare). The apparent equilibrium constant (KD) was calculated as kd/ka, in which ka and kd are the apparent association and dissociation constants, respectively.

[3] = 5XFAD mice, 10 mg/kg s.c. three times a week for 10 weeks, neurolide n = 11 versus saline n = 13

affinity constant KD of NL1 to Aβ, times lower compared to NX1β (recombinant rat NL1)	activity of brain-derived NEP (brain-derived NEP [2]; sNL1 0.3 μM)	Molecule	area of GFAP-immunoreactivity (gliosis) in the cortex (5XFAD mice)	average size of thioflavin-S-positive plaques in the cortex (5XFAD and WT mice; [3])	fractional area of thioflavin-S-positive plaques in the cortex (5XFAD and WT mice; [3])	plaque area or plaque size in other brain regions (5XFAD and WT mice; 5XFAD mice, hippocampus, striatum, thalamus, hypothalamus, versus saline)	plaques in WT brains (5XFAD and WT mice; WT mice, 10 mg/kg s.c. three times a week for 10 weeks)	NEP activity compared to untreated 5XFAD control (brain-derived NEP [1])	activity of brain-derived NEP (brain-derived NEP [2]; neurolide 10 μM)	spatial memory deficits induced by NMDAR-antagonist MK801 (rats)	spatial learning, social behavior, and locomotor activity (rats; healthy rats)
–	–	I: SEGNRWSNSTKGLFQRAKK-NH2 / II: SEGNRWSNSTKGLFQRAK / III: SEGNRWSNSTKGLFQRA / IV: SEGNRWSNSTKGLFQRA (amide I:18-IV:C, I:19-II:C, II:18-III:C; C-terminus assumed) [neurolide]	significant increase	significant increase	significant increase	no significant difference	no plaques	significant decrease	significantly decreased	counteracted spatial memory deficits	had no effect
approximately 11 times	significantly decreased	B1	–	–	–	–	–	–	–	–	–
